Legend:
U87MG tumorspheres = test: Tumorsphere formation from U87MG cells in NBM; format: cell-based, human; conditions: NBM with B27, EGF+bFGF
Description: FIG. 9B, first panel, illustrates cells of U87MG cultured in DMEM. Cells cultured in NBM with B27 supplement in the presence of EGF+bFGF developed into tumorspheres within 3-5 days (see FIG. 9A, middle panel).
(§1) Gliosphere culture. To generate gliospheres, the following standardized method was utilized. Briefly, U87MG and T98G glioblastoma cells were dissociated from DMEM cultures using trypsin-EDTA solution and reseeded in neurobasal medium (NBM) supplemented with B27 in the presence of 10 ng/ml bFGF and EGF. The cells (5×10^4/ml/well) were cultured in 12 well plates in 5% CO2-incubator at 37° C. with a medium change of every 2-3 days. The cells were photographed (200× and 400×) under phase contrast microscope (AX70, Olympus Optical, Japan) after 10-12 days. The primary human glioblastoma cells were also dissociated from DMEM using trypsin-EDTA. The cells were cultured (1×10^5 cells/ml/well) in neurobasal medium (NBM) supplemented with B27 in the presence of 10 ng/ml of bFGF and EGF in 12 well plates in 5% CO2-incubator at 37° C. The resulting tumorspheres were photographed under light microscope.

[1] = test system: U87MG and T98G human glioma cells, their respective BTSC's, and CD133+ cells; test: Proliferation of glioma cells, BTSC's and CD133+ cells, result in words; format: cell-based
Description: (§2) The use of nuclear receptor agonists in the treatment of brain tumors was examined by testing the effect of the specific ligands on the proliferation of brain tumor and BTSC'S. Prior to studying the anti-tumor effect of melatonin, it was necessary to determine the viability of glioma and BTSC's in the cultures used in this study. […] Their proliferation was measured by WST-1 assay. The ligands for all six nuclear receptors induced anti-proliferative activity in brain tumor stem cells as well as human glioma cells. It was also noted that the selected nuclear receptor agonists induced anti-tumor activity in brain tumor stem cells and that the different agonists for the highly altered nuclear hormone receptors provided different levels of inhibition for brain tumor cells and BTSC's in cultures. As a result, the nuclear hormone receptors having altered expression and activation profile in BTSC can be selected to specifically target BTSC's. Additional information regarding the individual studies is provided below:
(§3) Proliferation assay. Proliferation of gliosphere cells was measured using WST-1 assay (Roche Applied Sciences, Indianapolis, Ind.) and ^3H thymidine uptake assay. Briefly, T98G and U87MG glioma and gliosphere cells were cultured in 96-well tissue culture plates (1×10^4/200 μl/well) in neurobasal medium with B27 serum supplement in the presence of 10 ng/ml EGF+bFGF and increasing doses of nuclear receptors in 5% CO2-incubator at 37° C. After 48 hrs, WST-1 reagent ([…]) was added and the absorbance was measured at 460 nm using 2100 microplate reader (Alpha Diagnostics Inc., San Antonio, Tex.) as a measure of viable cell count. This assay is based on the cleavage of the tetrazolium salt, WST-1, by mitochondrial dehydrogenases in viable cells and a decrease in OD corresponds to decrease in viable cell count. In some experiments, ^3H thymidine (0.5 μCi/ml) was added at 48 hours, the cells harvested after 72 hours using a Tomtech harvester 96 (Hamden, Conn., USA) and the amount of ^3H thymidine uptake counted on a Perkin Elmer Microbeta liquid scintillation counter to provide a measure of proliferation.

U87MG human glioma cells = test: WST-1 proliferation assay, U87 glioma cells; format: cell-based; conditions: U-87 MG, anti-tumor activity, 48 hours
Description: as §2
(§4) Cell culture. The U87MG and T98G brain tumor cell-lines, established from human glioblastoma (Ponten, et al., 1968) were obtained from American Type Culture Collection (ATCC, Manassas, Va.). The cells were cultured in Dulbecco's Modified Eagle Medium (DMEM) (Invitrogen, California, USA) supplemented with 10% FBS, 1 mM Sodium pyruvate, 100 U/ml penicillin G, 100 μg/ml Streptomycin, 2 mM glutamine, 1 mM MEM nonessential amino acids and 50 μM 2-mercaptoethanol in 5% CO2 incubator at 37° C. The cells were dissociated using 0.25% trypsin, 0.53 mM EDTA solution and sub-cultured once in 3-5 days. Primary brain tumor tissue/cells were also obtained from the tissue repository at Methodist Research Institute and cultured (1×10^5 cells/ml/well) in DMEM medium supplemented with 10% FBS and sub-cultured once in 10-12 days.
as §3, with “This assay is based on the cleavage of the tetrazolium salt, WST-1, by mitochondrial dehydrogenases in viable cells and a decrease in OD corresponds to decrease in viable cell count.” left out

[2] = test system: T98G BTSC's (brain tumor stem cells); test: WST-1 proliferation assay, T98G BTSC's; format: cell-based; conditions: Homo sapiens, anti-tumor activity, 48 hours, read-out: EC50, T98-BTSC
Description: (§5) The use of nuclear receptor agonists in the treatment of brain tumors was examined by testing the effect of the specific ligands on the proliferation of brain tumor and BTSC'S. Prior to studying the anti-tumor effect of melatonin, it was necessary to determine the viability of glioma and BTSC's in the cultures used in this study. […] Their proliferation was measured by WST-1 assay. […] Additional information regarding the individual studies is provided below:
as §1
(§6) Proliferation assay. Proliferation of gliosphere cells was measured using WST-1 assay (Roche Applied Sciences, Indianapolis, Ind.) and ^3H thymidine uptake assay. […] After 48 hrs, WST-1 reagent ([…]) was added and the absorbance was measured at 460 nm using 2100 microplate reader (Alpha Diagnostics Inc., San Antonio, Tex.) as a measure of viable cell count. […] In some experiments, ^3H thymidine (0.5 μCi/ml) was added at 48 hours, the cells harvested after 72 hours using a Tomtech harvester 96 (Hamden, Conn., USA) and the amount of ^3H thymidine uptake counted on a Perkin Elmer Microbeta liquid scintillation counter to provide a measure of proliferation.

U87-CD133+ cells = test: WST-1 proliferation assay, U87-CD133+ cells; format: cell-based; conditions: Homo sapiens, anti-tumor activity, 48 hours
Description: as §2
(§7) Isolation and expansion of CD133+ BTSC: The CD133+ BTSC were isolated from human glioblastoma cells by magnetic bead technique using CD133 antibody (Miltenyi Biotec, Auburn, Calif., USA). The U87MG and T98G glioma cells and tumor spheres expanded as described above were dissociated by treatment with Trypsin-EDTA solution at 37° C. for 10 minutes. The cells (1×10^7 cells) were washed in cold sterile PBS, re-suspended in 100 μl blocking buffer (PBS, pH 7.2, 0.5% BSA, 2 mM EDTA) with 50 μl of FcR blocking reagents (Miltenyi Biotech, Auburn, Calif., USA) and incubated at 4° C. for 30 minutes. The cells were washed and re-suspended in 200 μl of anti-PE microbeads in the buffer and incubated at 4° C. for 30 minutes. The CD133+ cells were separated by passing through an LS column in the midi Macs separation unit. The column effluent was collected to provide a CD133 negative population. The columns were washed with buffer, removed from the Mac separation unit and placed in a sterile 15 ml tube. […] The cells obtained were counted and expanded in culture or used directly for the experiments described herein.
as §6

T98G-CD133+ cells = test: WST-1 proliferation assay, T98G-CD133+ cells; format: cell-based; conditions: Homo sapiens, anti-tumor activity, 48 hours
Description: as §2, §7, §6

T98G human glioma cells = test: WST-1 proliferation assay, T98G glioma cells; format: cell-based; conditions: anti-tumor activity, 48 hours, read-out: EC50, T98-glioma
Description: as §2, §4
as §3, with “This assay is based on the cleavage of the tetrazolium salt, WST-1, by mitochondrial dehydrogenases in viable cells and a decrease in OD corresponds to decrease in viable cell count.” left out

[3] = test system: U87 BTSC's (brain tumor stem cells); test: WST-1 proliferation assay, U87 BTSC's; format: cell-based; conditions: Homo sapiens, anti-tumor activity, 48 hours
Description: as §5, §1, §6

T98G tumorspheres = test: Tumorsphere formation from T98G glioblastoma cells in NBM; format: cell-based, human; conditions: NBM with B27, EGF+bFGF
Description: Initially culture conditions were established for expanding BTSC's as tumorspheres from brain tumor cells in culture. […] The resulting tumorspheres increased substantially in size within 7 to 10 days. FIG. 1 illustrates typical glioblastoma cells cultured in DMEM supplemented with 10% FBS and the corresponding tumorspheres cultured in neurobasal medium (NBM) with B27 supplement and 10 ng/ml EGF+bFGF. The tumorspheres illustrated in FIG. 1 were photographed after 10 days (200×).
as §1

Row | EC50 (U87MG human glioma cells) | EC50 [2] | EC50 (U87-CD133+ cells) | EC50 (T98G human glioma cells) | EC50 [3] | SMILES | tumorsphere size and number, U87MG (U87MG tumorspheres) | proliferation of glioma cells and BTSC's [1] | EC50 (T98G-CD133+ cells) | number and size of T98G tumorspheres (T98G tumorspheres)
1 | – | – | – | – | – | CCCCCC=CC=C1C(=O)C=C[C@@H]1CC=CCCCC(=O)O [15d-PGJ2, 15-deoxy Δ^12,14-prostaglandin J2] | significantly decreased | inhibited the proliferation | – | –
2 | 20.3 ± 0.57 µM | 85.5 ± 22.4 µM | 17.6 ± 0.29 µM | 85 ± 5.59 µM | 72.5 ± 1.57 µM | CCCC(=O)SCCNC(=O)CCNC(=O)[C@H](O)C(C)(C)COP(=O)(O)OP(=O)(O)OC[C@H]1O[C@@H](n2cnc3c(N)ncnc32)[C@H](O)[C@@H]1OP(=O)(O)O [Butyryl CoA] | – | dose-dependent decrease in the proliferation | 54.7 ± 5.76 µM | significant and dose-dependent decrease
3 | – | – | – | – | – | Clc1ccc(-c2nc3sccn3c2/C=N/OCc2ccc(Cl)c(Cl)c2)cc1 [CITCO] | – | inhibits the proliferation | – | significant and dose-dependent decrease
4 | 4.22 ± 0.23 µM | 12.2 ± 3.04 µM | 2.96 ± 0.21 µM | 4.85 ± 1 µM | 1.55 ± 0.43 µM | O=C(O)Cc1cccc(OCCCN(Cc2cccc(C(F)(F)F)c2Cl)CC(c2ccccc2)c2ccccc2)c1 [GW3965] | – | inhibits the proliferation | 3.28 ± 0.64 µM | significant and dose-dependent decrease
5 | 18.66 ± 0.18 µM | 44.7 ± 6.18 µM | 2.6 ± 0.25 µM | 31 ± 12 µM | 7.91 ± 1.34 µM | COc1ccc2[nH]cc(CCNC(C)=O)c2c1 [Melatonin] | – | inhibits the proliferation | 2.45 ± 0.43 µM | significant and dose-dependent decrease
6 | 25.4 ± 4 µM | – | 1.2 ± 0.2 µM | 12.8 ± 1.97 µM | – | CO[C@H]1/C=C/O[C@@]2(C)Oc3c(C)c(O)c4c(O)c(c(/C=N/N5CCN(C)CC5)c(O)c4c3C2=O)NC(=O)/C(C)=C\C=C\[C@H](C)[C@H](O)[C@@H](C)[C@@H](O)[C@@H](C)[C@H](OC(C)=O)[C@@H]1C [Rifampicin] | – | – | 1.99 ± 0.47 µM | –
